Data set [1] has as its target T1, ABCB1 (Homo sapiens, UniProt P08183). Kind of data set: calcein AM assay, ABCB1-expressing A2780/ADR cells. The settings on record: for IC50: read-out: ABCB1 calcein AM IC50 ± SEM, A2780/ADR cells, 22, 23 constrained to reference inhibitor 34; for ABCB1 inhibition: screening at 10 μM, inhibitor if 20% (+SEM) reached.
From the text: (§3) To provide a detailed picture of the pharmacological profile of the indole derivatives, we investigated their modulatory nature on the most prominent ABC transporters ABCB1 (P-glycoprotein, P-gp), ABCC1, (multidrug resistance-associated protein 1, MRP1), and ABCG2 (breast cancer resistance protein, BCRP). Here, we conducted calcein AM (ABCB1),[2],[52]−[59] daunorubicin (ABCC1),[52],[58]−[60] and pheophorbide A (ABCG2)[2],[52]−[60] assays using ABCB1-expressing A2780/ADR, ABCC1-expressing H69AR, and ABCG2-expressing MDCK II BCRP cells, respectively.
(§4) The calcein AM (ABCB1),[2],[52]−[59] daunorubicin (ABCB1[52],[60] and ABCC1[52],[58]−[60]), and pheophorbide A (ABCG2)[2],[52]−[60] assays were conducted as reported earlier. […] The data was processed using GraphPad Prism version 8.4.0, and IC50 values were determined, applying three- or four-parameter logistic equations, whatever was statistically preferred.
For data set [2], the system named is A-549 cells. Nature of the data set: MTT-based cell viability assay with glucose supplementation. The settings on record: 25 and 50% of original glucose (4.5 g/L) every 12 h over 72 h. As for the experimental part: The glucose deprivation analyses were conducted by adding 4.5 μL of glucose (final concentrations 25% and 50% of the original 4.5 g/L) to each well at an interval of 12 h over a period of 72 h to the 180 μL cell suspension of A-549 cells in a colorless flat-bottom 96-well microplate (SPL Life Sciences, Gyeonggi-do, Republic of Korea). Cell viability was determined as described above.

Data set [3] deals with T1, ABCB1. Nature of the data set: daunorubicin assay, ABCB1-expressing A2780/ADR cells. The data set is classed as cell-based. The following applies: A2780/ADR cells; read-out: ABCB1 daunorubicin IC50 ± SEM.
In data set [4] the target is ABCC1 (Homo sapiens, UniProt P33527). Nature of the data set: daunorubicin assay, ABCC1-expressing H69AR cells. The settings on record: screening at 10 μM, inhibitor if 20% (+SEM) reached.
From the text: as §3, §4
Data set [5] concerns MCF-7 cancer cells. Nature of the data set: MTT-based cell viability assay, MCF-7. The settings on record: Homo sapiens, MCF7, 72 h, read-out: MCF-7 cancer cell toxicity GI50 ± SEM. The source says:
(§1) MCT1-expressing cells have an extraordinary energy demand and rely on pyruvate metabolism, through either lactate conversion or pyruvate consumption. Inhibition of MCT1 blocks lactate and pyruvate influx into cancer cells, which prevents their processing in the TCA cycle. Over time, the viability of cells exposed to an MCT1 inhibitor is impaired due to pyruvate deprivation, which is compensated by upregulating glucose metabolism—leading to an overconsumption of glucose. To confirm the antiproliferative nature of the indole derivatives, we investigated the compounds toward the MCT1-expressing cell lines A-549[14],[15] and MCF-7.[16] Cancer cell viability was assessed via a 3-(4,5-dimethylthiazol-2-yl)-2,5-diphenyltetrazolium bromide (MTT) assay, as reported earlier.[43]
(§2) To determine the growth inhibitory potential of compounds 17–32, […] of each compound either at concentrations between 1 and 100 μM (A-549 or MCF-7) or at 10 and 50 μM (NIH/3T3) was pipetted into colorless flat-bottom 96-well microplates. Thereafter, 180 μL of a cell suspension (5000 cells/well) of either A-549, MCF-7, or NIH/3T3 cells was added and subsequently kept for 72 h at 37 °C under a 5% CO2-humidified atmosphere. The cell viability as well as the GI50 values were determined as described above.[43]

Data set [6] addresses T2, MCT1 (Homo sapiens, UniProt P53985).
T2 construct: MCT1-expressing A-549 cells[14],[15] were exposed to the MCT1 substrate 3-BP, which becomes influxed by MCT1; endogenous in cells; host or cells: A-549 lung cancer cells (from NCCS, Pune)
T2 sequence (P53985 1-500): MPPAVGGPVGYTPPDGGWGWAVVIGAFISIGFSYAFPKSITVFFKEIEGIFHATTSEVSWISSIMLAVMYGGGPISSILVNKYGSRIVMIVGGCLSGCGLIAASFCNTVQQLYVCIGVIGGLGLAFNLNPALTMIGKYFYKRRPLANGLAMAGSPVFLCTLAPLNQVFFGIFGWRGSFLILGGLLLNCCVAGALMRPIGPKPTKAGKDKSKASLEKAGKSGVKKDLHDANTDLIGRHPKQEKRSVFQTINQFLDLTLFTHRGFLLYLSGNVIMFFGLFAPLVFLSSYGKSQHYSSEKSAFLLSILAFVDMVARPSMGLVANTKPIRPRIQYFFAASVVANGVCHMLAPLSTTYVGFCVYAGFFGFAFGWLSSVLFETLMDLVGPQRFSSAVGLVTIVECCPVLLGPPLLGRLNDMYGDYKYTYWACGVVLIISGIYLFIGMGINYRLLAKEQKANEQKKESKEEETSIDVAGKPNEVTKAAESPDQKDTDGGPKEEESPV
T2 sequence (P35613 140-385 partner limits assumed): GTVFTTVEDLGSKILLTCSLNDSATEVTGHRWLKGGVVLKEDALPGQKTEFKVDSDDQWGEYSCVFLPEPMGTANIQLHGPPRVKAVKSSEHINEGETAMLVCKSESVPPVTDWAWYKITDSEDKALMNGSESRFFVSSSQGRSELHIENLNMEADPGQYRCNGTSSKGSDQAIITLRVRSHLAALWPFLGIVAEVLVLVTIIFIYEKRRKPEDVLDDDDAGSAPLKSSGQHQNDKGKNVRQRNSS
Nature of the data set: functional 3-BP cell viability assay (MCT1 transport inhibition). The data set is classed as cell-based. The settings on record: MCT1-expressing A-549 cells, 50 μM 3-BP, 72 h; read-out: MCT1 transport inhibition IC50 ± SEM. The protocol: The inhibitory activity of indole derivatives against MCT1 was determined by applying a functional 3-bromopyruvate (3-BP) cell viability assay, as described in the literature[20],[39] with minor modifications. In short, MCT1-expressing A-549 cells[14],[15] were exposed to the MCT1 substrate 3-BP, which becomes influxed by MCT1. 3-BP is toxic, leading to decreased cell viability. Functional inhibition of MCT1 results in reduced intracellular 3-BP levels and, thus, enhanced cell viability compared to no inhibition. […] Table 1 provides the half-maximal inhibition concentration (IC50) values of compounds 17–32.
A functional 3-BP cytotoxicity assay was conducted as described in the literature[20],[39] with minor modifications. Dilution series of compounds 17–32 between 1 nM and 1 μM were prepared in DPBS (Cell Clone, Genetix Biotech Asia, New Delhi India), and 10 μL of each concentration was pipetted into a colorless flat-bottom 96-well microplate (SPL Life Sciences, Gyeonggi-do, Republic of Korea). One hundred and eighty microliters of a cell suspension (5000 cells/well) of A-549 cells was added, and subsequently, 10 μL of 3-BP was added at a concentration of 1 mM (final concentration per well: 50 μM). The plate was kept for 72 h at 37 °C under a 5% CO2-humidified atmosphere. Cell viability was determined as described before[43] by adding 20 μL of a 5 mg/mL solution of MTT to each well and further incubation for 1 h. Eventually, the supernatant was removed and 100 μL of DMSO was added to each well. The absorbance was spectrophotometrically determined at 570 nm using a SpectraMax iD3 multi-mode microplate reader (Molecular Devices, San Jose, CA) with a background correction (690 nm). The determined absorbance values were correlated to the logarithmic concentrations of compounds 17–32, and IC50 values were calculated applying nonlinear regression using GraphPad Prism (version 8.4.0., San Diego, CA).

Data set [7] deals with A-549 cancer cells. Kind of data set: MTT-based cell viability assay, A-549. The settings on record: Homo sapiens, A549, 72 h, read-out: A-549 cancer cell toxicity GI50 ± SEM.
From the text: as §1, §2

T1 sequence (P08183 whole entry): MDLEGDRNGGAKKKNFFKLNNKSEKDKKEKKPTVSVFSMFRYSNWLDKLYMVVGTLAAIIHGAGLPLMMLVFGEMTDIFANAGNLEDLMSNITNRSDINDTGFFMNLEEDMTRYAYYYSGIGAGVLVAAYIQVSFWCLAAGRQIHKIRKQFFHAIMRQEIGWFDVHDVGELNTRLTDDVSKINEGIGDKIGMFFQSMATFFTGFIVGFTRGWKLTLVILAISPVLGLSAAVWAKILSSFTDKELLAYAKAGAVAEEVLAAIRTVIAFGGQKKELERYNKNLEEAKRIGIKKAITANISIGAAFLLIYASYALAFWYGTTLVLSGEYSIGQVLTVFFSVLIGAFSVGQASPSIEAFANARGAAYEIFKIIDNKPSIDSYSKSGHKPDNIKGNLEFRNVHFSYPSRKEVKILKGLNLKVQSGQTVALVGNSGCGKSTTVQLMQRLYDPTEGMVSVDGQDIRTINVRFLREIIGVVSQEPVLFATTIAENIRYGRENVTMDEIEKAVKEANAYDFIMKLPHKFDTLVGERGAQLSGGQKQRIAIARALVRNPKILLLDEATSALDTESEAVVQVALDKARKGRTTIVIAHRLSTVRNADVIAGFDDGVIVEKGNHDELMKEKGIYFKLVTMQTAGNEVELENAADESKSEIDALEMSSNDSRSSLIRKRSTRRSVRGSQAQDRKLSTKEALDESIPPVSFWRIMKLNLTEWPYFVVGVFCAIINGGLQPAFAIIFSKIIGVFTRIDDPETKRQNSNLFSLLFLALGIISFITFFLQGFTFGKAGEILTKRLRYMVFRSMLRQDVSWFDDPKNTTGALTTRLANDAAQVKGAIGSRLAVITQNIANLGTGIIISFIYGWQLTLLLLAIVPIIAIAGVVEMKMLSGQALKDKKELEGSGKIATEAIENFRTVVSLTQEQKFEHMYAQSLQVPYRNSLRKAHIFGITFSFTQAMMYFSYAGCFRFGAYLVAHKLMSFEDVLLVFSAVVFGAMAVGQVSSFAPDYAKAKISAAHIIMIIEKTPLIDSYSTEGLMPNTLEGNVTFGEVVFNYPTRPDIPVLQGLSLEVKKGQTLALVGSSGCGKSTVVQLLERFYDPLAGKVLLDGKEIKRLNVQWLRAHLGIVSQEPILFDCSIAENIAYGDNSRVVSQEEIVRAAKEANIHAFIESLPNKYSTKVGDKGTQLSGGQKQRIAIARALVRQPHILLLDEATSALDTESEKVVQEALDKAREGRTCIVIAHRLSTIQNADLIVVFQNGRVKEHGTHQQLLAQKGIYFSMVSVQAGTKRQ
Chain of ABCC1 (P33527 whole entry): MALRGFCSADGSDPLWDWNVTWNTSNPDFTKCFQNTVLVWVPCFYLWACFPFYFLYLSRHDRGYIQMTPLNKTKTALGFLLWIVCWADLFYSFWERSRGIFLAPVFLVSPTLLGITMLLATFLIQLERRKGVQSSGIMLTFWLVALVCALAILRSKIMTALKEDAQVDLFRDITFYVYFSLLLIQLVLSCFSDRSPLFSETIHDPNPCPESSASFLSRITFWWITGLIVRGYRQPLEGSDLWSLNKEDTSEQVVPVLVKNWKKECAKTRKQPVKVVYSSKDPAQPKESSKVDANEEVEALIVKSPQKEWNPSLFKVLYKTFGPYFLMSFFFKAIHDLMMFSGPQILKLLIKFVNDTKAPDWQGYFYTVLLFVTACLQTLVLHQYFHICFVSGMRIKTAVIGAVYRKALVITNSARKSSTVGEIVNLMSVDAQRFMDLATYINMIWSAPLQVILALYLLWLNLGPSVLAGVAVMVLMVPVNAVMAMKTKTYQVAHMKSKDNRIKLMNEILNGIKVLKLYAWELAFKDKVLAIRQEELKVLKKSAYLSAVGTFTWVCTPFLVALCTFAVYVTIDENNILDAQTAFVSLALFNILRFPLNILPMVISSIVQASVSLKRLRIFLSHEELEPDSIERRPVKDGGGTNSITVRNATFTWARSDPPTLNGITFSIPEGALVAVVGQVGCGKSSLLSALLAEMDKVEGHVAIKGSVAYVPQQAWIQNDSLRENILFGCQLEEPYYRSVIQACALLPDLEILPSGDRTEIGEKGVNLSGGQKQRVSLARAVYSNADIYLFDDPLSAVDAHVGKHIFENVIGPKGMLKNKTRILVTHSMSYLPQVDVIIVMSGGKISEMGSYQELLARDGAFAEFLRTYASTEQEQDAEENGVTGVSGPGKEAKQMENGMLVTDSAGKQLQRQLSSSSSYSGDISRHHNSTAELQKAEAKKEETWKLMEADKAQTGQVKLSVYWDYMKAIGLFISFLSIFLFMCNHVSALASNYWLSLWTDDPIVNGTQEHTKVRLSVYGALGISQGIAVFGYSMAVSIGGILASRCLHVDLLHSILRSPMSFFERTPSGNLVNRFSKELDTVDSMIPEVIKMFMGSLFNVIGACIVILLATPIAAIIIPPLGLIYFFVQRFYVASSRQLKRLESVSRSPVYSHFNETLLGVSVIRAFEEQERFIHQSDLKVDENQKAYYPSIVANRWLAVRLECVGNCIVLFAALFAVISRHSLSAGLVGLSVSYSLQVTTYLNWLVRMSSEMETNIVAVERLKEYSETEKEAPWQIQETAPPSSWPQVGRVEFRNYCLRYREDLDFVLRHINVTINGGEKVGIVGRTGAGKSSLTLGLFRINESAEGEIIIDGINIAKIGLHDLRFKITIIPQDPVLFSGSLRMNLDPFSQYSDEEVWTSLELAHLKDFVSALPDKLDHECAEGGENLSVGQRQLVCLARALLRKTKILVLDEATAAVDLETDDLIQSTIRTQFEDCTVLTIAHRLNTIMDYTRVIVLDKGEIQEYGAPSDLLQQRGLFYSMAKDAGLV

As usually defined, the IC50 is the concentration at which inhibition is half-maximal. The term GI50 denotes the concentration at which growth is held to half of that of the control. With `COC(=O)/C(C#N)=C/c1cn(CC(=O)Nc2ccc(OC)cc2)c2ccccc12` [Compound 24, Methyl-2-cyano-3-(1-(2-((4-methoxyphenyl)amino)-2-oxoethyl)-1H-indol-3-yl) Acrylate], the IC50 was 983 ± 135 nM in data set [1], 1490 ± 50 nM in data set [3] and 81 ± 4 nM in data set [6]. The ABCB1 inhibition result in data set [1] is on record as “X (Compounds were considered as inhibitors if they reached 20% (+SEM) inhibition compared to the reference inhibitors 33–35; X = fulfilled)”. Further, the “effect of glucose supplementation on cell toxicity” value in data set [2] was “supplementation of glucose prevents cell toxicity”. Moreover, the ABCC1 inhibition entry in data set [4] was “X (Compounds were considered as inhibitors if they reached 20% (+SEM) inhibition compared to the reference inhibitors 33–35; X = fulfilled)”. The GI50 was 15.1 ± 0.4 µM in data set [5] and 20 ± 0.6 µM in data set [7].
With `COC(=O)/C(C#N)=C/c1cn(CC(=O)Nc2ccc(C)cn2)c2ccccc12` [Compound 30, Methyl-2-cyano-3-(1-(2-((5-methylpyridin-2-yl)amino)-2-oxoethyl)-1H-indol-3-yl) Acrylate], the 50% inhibitory concentration (IC50) in data set [1] is 1510 ± 80 nM; in data set [3], 2770 ± 20 nM; in data set [6], 82.3 ± 4.4 nM. In data set [1], the ABCB1 inhibition result is reported as “X (Compounds were considered as inhibitors if they reached 20% (+SEM) inhibition compared to the reference inhibitors 33–35; X = fulfilled)”. Also, in data set [2], the “effect of glucose supplementation on cell toxicity” value was “supplementation of glucose prevents cell toxicity”. Further, the ABCC1 inhibition result in data set [4] is on record as “X (Compounds were considered as inhibitors if they reached 20% (+SEM) inhibition compared to the reference inhibitors 33–35; X = fulfilled)”. Besides, the GI50 in data set [5] was found to be 9.12 ± 0.22 µM; in data set [7] it was 19.3 ± 0.3 µM.

The values are drawn from paper PMC9841531, “Indole Derivatives as New Structural Class of Potent and Antiproliferative Inhibitors of Monocarboxylate Transporter 1 (MCT1; SLC16A1)” (Journal of Medicinal Chemistry, 2022).
